The numbers were not newly measured in patent US10863741B2, “Herbicidal compositions” (HOMS, LLC, priority 2015, dated 2020), which cites them from elsewhere.

The subject of the series is male rats. To be noted: chronic exposure.

With `C=C(C)[C@H]1CC=C(C)CC1` [d-limonene], the Tumor incidence result is given as “significant incidence of renal tubular tumors”.
